Assays:
HeLa = experiment: Topotecan cytotoxicity with Tdp1 inhibitor (MTT), HeLa; type: cell-based; details: Homo sapiens, topotecan alone or in the presence of 5 µM Tdp1 inhibitor
Text: (§1) Tdp1 inhibitors combined with topotecan dramatically reduce tumor metastasis. Usnic acid derivatives of the enamine and hydrazonothiazole series turned out to be promising sensitizers of the action of topotecan both on cultured cell lines and on mouse tumors in vivo [30, 32]. We studied the ability of the usnic acid derivatives to sensitize the effects of topotecan on the same panel of cell lines. We used two non-cancerous cell lines MRC-5 and HEK293A, including previously obtained HEK293A Tdp1 knockout cells (for compound 7), and cancerous cell lines HeLa, HCT-116, A-549, MCF-7, T98G. We found the most pronounced and reliable sensitizing effect on cancerous cell lines HeLa, HCT-116, A-549, MCF-7 only for compound 7 (Table 2 and Figures S2 and S3).
(§2) Cytotoxicity of the compounds against human tumor cell lines: HeLa (cervical cancer), HCT-116 (colorectal cancer), A-549 (lung cancer), MCF-7 (breast cancer), T98G (glioblastoma), HepG2 (hepatocarcinoma), and nontumor cell lines: MRC-5 (lung fibroblasts) and HEK293A (human embryonic kidney) was examined using the MTT test. HCT-116 and MRC-5 cell lines were provided by the Cell Culture Bank of the State Research Center for Virology and Biotechnology Vector, Novosibirsk, Russia. A-549, MCF-7, and T98G cell lines were obtained from the Russian Cell Culture Collection (RCCC) Institute of Cytology RAS (St. Petersburg, Russia). […]

MCF-7 = experiment: Topotecan cytotoxicity with Tdp1 inhibitor (MTT), MCF-7; type: cell-based; details: Homo sapiens, MCF7; topotecan alone or in the presence of 5 µM Tdp1 inhibitor
Text: as §1, §2

[1] = Topotecan cytotoxicity with Tdp1 inhibitor (MTT), HEK293A; type: cell-based; details: human, HEK293A cells (embryonic kidney, nontumor); topotecan alone or in the presence of 5 µM Tdp1 inhibitor
Text: as §1, §2

[2] = MTT cytotoxicity test, T98G; type: cell-based; details: human, T98G cells (glioblastoma), read-out: semitoxic concentration (CC50), T98G
Text: (§3) Compounds 6 and 8 with a bromophenol residue in the enamine fragment have a weak or moderate effect on cell survival (Table 1 and Supplementary Figure S1).
(§4) Cytotoxicity of the compounds against human tumor cell lines: HeLa (cervical cancer), HCT-116 (colorectal cancer), A-549 (lung cancer), MCF-7 (breast cancer), T98G (glioblastoma), HepG2 (hepatocarcinoma), and nontumor cell lines: MRC-5 (lung fibroblasts) and HEK293A (human embryonic kidney) was examined using the MTT test. HCT-116 and MRC-5 cell lines were provided by the Cell Culture Bank of the State Research Center for Virology and Biotechnology Vector, Novosibirsk, Russia. A-549, MCF-7, and T98G cell lines were obtained from the Russian Cell Culture Collection (RCCC) Institute of Cytology RAS (St. Petersburg, Russia). HEK293A cells were purchased (ThermoFisher Scientific, Waltham, MA, USA).
(§5) The cell culture medium DMEM medium (Invitrogen, Carlsbad, CA, USA) contained 10% fetal bovine serum (FBS) (Invitrogen), penicillin (100 units/mL), and streptomycin (100 µg/mL). Cells were seeded into 96-well plates at 5000 cells per well and grown at 37 °C and 5% CO2 in a humid atmosphere. At 30–50% confluence, the tested compounds were added to the medium to a final DMSO content of 1%. Control wells contained 1% DMSO. To determine the cytotoxicity of Tdp1 inhibitors, the cells were treated with compounds with concentrations ranging from 1 to 100 µM for 72 h at 37 °C for 72 h. All measurements were repeated a minimum of twice.

[3] = MTT cytotoxicity test, HEK293A; type: cell-based; details: human, HEK293A cells (embryonic kidney, nontumor), read-out: semitoxic concentration (CC50), HEK293A
Text: as §3, §4, §5

[4] = tested on: various types of cultured cells; experiment: MTT test, panel of cultured cell lines; type: cell-based; details: at concentrations up to 100 μM; wide panel of tumor and non-cancerous cell lines
Text: as §3, §4
as §5, with “To determine the cytotoxicity of Tdp1 inhibitors, the cells were treated with compounds with concentrations ranging from 1 to 100 µM for 72 h at 37 °C for 72 h. All measurements were repeated a minimum of twice.” left out

[5] = MTT cytotoxicity test, MCF-7; type: cell-based; details: human, MCF-7 cells (breast cancer), read-out: semitoxic concentration (CC50), MCF-7
Text: as §3, §4, §5

[6] = MTT cytotoxicity test, MRC-5; type: cell-based; details: human, MRC-5 cells (lung fibroblasts, nontumor), read-out: semitoxic concentration (CC50), MRC-5
Text: as §3, §4, §5

Tdp1 = biological target: T1, Tdp1 (Homo sapiens, UniProt Q9NUW8); experiment: Tdp1 inhibition, fluorescent oligonucleotide biosensor; type: biochemical; details: purified Tdp1 1.5 nM, 50 nM biosensor; read-out: Concentration of half-maximal inhibition of Tdp1 (IC50)
T1 construct: Purified Tdp1 (1.5 nM) triggered the reaction
Text: The inhibitory properties of the compound on the purified Tdp1 was studied using a technique developed previously by our team. A 16-mer single-stranded oligonucleotide carrying a fluorophore at the 5′-end and a quencher at the 3′-end was used as a biosensor. When within the Förster radius, the quencher suppressed the fluorescence of the fluorophore. The quencher was removed by Tdp1, resulting in fluorescence emission. Usnic acid derivatives with a bromophenol residue in the enamine fragment (compounds 6 and 8) inhibit the enzyme with half-maximal inhibition concentrations (IC50) an order of magnitude worse than derivatives with a di-tert-butyl fragment (compounds 5 and 7).
An oligonucleotide 5′-[FAM] AAC GTC AGGGTC TTC C [BHQ1]-3′ synthesized in the laboratory Laboratory of Nucleic Acids Chemistry at the Institute of Chemical Biology and Fundamental Medicine (Novosibirsk, Russia) was used as a biosensor. Removal of the quencher (BHQ1) due to enzyme activity leads to increased fluorescence of FAM. The reaction was carried out at different concentrations of inhibitors (1.5% of DMSO, Sigma, St. Louis, MO, USA, in the control samples). The reaction mixtures contained Tdp1 buffer (50 mM Tris-HCl pH 8.0, 50 mM NaCl, and 7 mM β-mercaptoethanol), 50 nM biosensor, and an inhibitor being tested. Purified Tdp1 (1.5 nM) triggered the reaction.
The fluorescence was measured using POLARstar OPTIMA fluorimeter (BMG LABTECH, GmbH, Ortenberg, Germany). The values of IC50 were determined in minimum three independent experiments and were calculated using embedded software MARS Data Analysis 2.0 (BMG LABTECH, GmbH, Ortenberg, Germany).

T1 sequence (Q9NUW8 whole entry): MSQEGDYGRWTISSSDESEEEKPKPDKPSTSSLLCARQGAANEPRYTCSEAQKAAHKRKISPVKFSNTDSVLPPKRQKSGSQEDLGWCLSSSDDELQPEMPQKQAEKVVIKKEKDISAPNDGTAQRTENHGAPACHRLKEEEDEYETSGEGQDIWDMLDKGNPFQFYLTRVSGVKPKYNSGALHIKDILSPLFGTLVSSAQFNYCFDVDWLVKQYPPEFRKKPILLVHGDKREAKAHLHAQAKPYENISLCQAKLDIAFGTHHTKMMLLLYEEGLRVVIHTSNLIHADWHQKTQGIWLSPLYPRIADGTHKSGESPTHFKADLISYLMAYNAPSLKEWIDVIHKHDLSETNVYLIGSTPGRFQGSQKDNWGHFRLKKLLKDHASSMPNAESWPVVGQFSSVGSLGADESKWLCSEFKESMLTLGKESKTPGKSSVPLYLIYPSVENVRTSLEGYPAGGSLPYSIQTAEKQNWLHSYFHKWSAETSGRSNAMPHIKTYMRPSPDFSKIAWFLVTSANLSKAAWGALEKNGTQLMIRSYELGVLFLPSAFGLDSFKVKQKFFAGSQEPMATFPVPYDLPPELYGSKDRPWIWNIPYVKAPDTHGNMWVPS

SMILES	CC50 (HeLa) [µM]	CC50 (MCF-7) [µM]	CC50 [1] [µM]	CC50 at 72 h [2] [µM]	CC50 at 72 h [3] [µM]	living cells (metabolic activity, MTT) [4]	CC50 at 72 h [5] [µM]	CC50 at 72 h [6] [µM]	IC50 (Tdp1) [µM]
CC[C@@]1(O)C(=O)OCc2c1cc1n(c2=O)Cc2cc3c(CN(C)C)c(O)ccc3nc2-1 [Tpc, topotecan]	9.9	1.4	0.033	–	–	–	–	–	–
C/C(NCCCc1cc(C(C)(C)C)c(O)c(C(C)(C)C)c1)=C1\C(=O)C=C2Oc3c(-c4csc(N/N=C/c5ccc(Br)cc5)n4)c(O)c(C)c(O)c3[C@@]2(C)C1=O [Compound 7, (4E)-10-{2-[(E)-2-[(4-bromophenyl)methylidene]hydrazin-1-yl]-1,3-thiazole-4-yl}-4-(1-{[3-(3,5-di-tret-butyl-4-hydroxyhenyl)propyl]amino}ethylidene)-11,13-dihydroxy-2,12-dimethyl-8-oxatricyclo [7.4.0.02,7]trideca-1(13),6,9,11-tetraen-3,5-dione]	–	–	–	> 100	> 100	more than 50%	> 100	> 100	0.12 ± 0.01

Reference: publication PMC10816808, “Enhancement of the Antitumor and Antimetastatic Effect of Topotecan and Normalization of Blood Counts in Mice with Lewis Carcinoma by Tdp1 Inhibitors—New Usnic Acid Derivatives” (International Journal of Molecular Sciences, 2024)
